Data: patent US11401510B2, “Generation of airway basal stem cells from human pluripotent stem cells” (TRUSTEES OF BOSTON UNIVERSITY, priority 2020, dated 2022)

How the values were obtained:
[1] = target: CFTR (F508del) in ALI cultures generated from CF iPSCs (Homo sapiens, UniProt P13569, DEL508-508); assay: Ussing chamber analysis of CFTR-dependent current, CF ALI cultures; assay type: cell-based; conditions: CF (F508del homozygous) iPSC-derived ALI cultures, after amiloride
Description: Pre- and post-gene corrected paired syngeneic iPSC clones (hereafter CF and Corr CF) were differentiated into iBCs in the present protocol, sorted using the present antibody-based-method and generated ALI cultures composed of BCs, SCs, and MCCs (FIG. 6A). CFTR-dependent current, representing ion flux regulated by apically localized CFTR, was measured using the gold-standard Ussing chamber approach.
Ussing chamber experiments were performed on EasyMount Ussing Chamber Systems at voltage clamp mode, and Acquiciliare™ & Analyze software (Physiologic Instruments) was employed to record and analyze data. […] Subsequently, 10 pM forskolin (Sigma) were administered to stimulate chloride current. […] For BU3 NGPT derived ALI, 5 pM VX-770, CFTR modulator, was treated subsequent to forskolin. The resulting change in short circuit current was calculated as DIsc. The data were expressed in mean±SD.

[2] = target: CFTR in ALI cultures generated from corrected CF iPSCs (Corr CF) (Homo sapiens, UniProt P13569); assay: Ussing chamber analysis of CFTR-dependent current, corrected CF ALI cultures; conditions: Corr CF (gene-corrected) iPSC-derived ALI cultures, after amiloride; mean±SD, n=3
Description: For CF modeling, gene editing was used to correct the F508del CFTR mutation. Pre- and post-gene corrected paired syngeneic iPSC clones (hereafter CF and Corr CF) were differentiated into iBCs in the present protocol, sorted using the present antibody-based-method and generated ALI cultures composed of BCs, SCs, and MCCs (FIG. 6A). CFTR-dependent current, representing ion flux regulated by apically localized CFTR, was measured using the gold-standard Ussing chamber approach.
Ussing chamber experiments were performed on EasyMount Ussing Chamber Systems at voltage clamp mode, and Acquiciliare™ & Analyze software (Physiologic Instruments) was employed to record and analyze data. Briefly, Transwell inserts were mounted into chambers and bathed in low chloride Ringer's solution (1.2 mM NaCl, 140 mM Na-gluconate, 25 mM NaHCO3, 3.33 mM KH2PO4, 0.83 mM K2HPO4, 1.2 mM CaCl2, 1.2 mM MgCl2, 10 mM glucose) at apical and Ringer's solution (120 mM NaCl, 25 mM NaHCO3, 3.33 mM KH2PO4, 0.83 mM K2HPO4, 1.2 mM CaCl2, 1.2 mM MgCl2, 10 mM glucose) at basolateral side of monolayer. After base line is stabilized, 100 pM amiloride (Sigma) applied to both sides of the chamber to carry out complete inhibition of ENaC (Epithelial sodium channel). Subsequently, 10 pM forskolin (Sigma) were administered to stimulate chloride current. […] The resulting change in short circuit current was calculated as DIsc. […]

[3] = test system: BU3 NGPT iBC-derived ALI cultures; assay: Mucus cell metaplasia model: IL-13 treatment of iBC-derived ALI cultures; assay type: cell-based, human
Description: Human airway epithelium has diverse biologic and physiologic roles, some of which are uniquely affected by disease. it was tested whether iBC-derived ALI cultures could recapitulate features of the three airway disorders with distinct epithelial characteristics: (1) mucus cell metaplasia in asthma; (2) abnormal ion-flux seen in CF; and (3) defective ciliary beating seen in PCD. First, it was tested whether iBC-derived ALI cultures could recapitulate the mucus cell metaplasia seen in asthma. Interleukin-13 (IL-13) is an inflammatory cytokine in asthma and can induce mucus metaplasia. A number of studies, in mice and primary human airway epithelial cell cultures, have found IL-13 leads to increased MUC5AC+ cell numbers via the activation of STAT6 and SPDEF, at the expense of MCCs and MUC5B+ cell frequencies (Kondo et al., 2002; Seibold, 2018; Woodruff et al., 2009).
BU3 NGPT iBSC-derived ALI culture was prepared as described above. Ten days after air-lifted, cells were treated with 10 ng/ml IL-13 and cultured for 10 days prior to the assessments. Mucus cell metaplasia was assessed by immunofluorescence staining for the increment of MUC5AC expressing cells or gene expression changes via qRT-PCR. Quantification of MUC5AC+ cells was performed using ImageJ™ software by manually counting MUC5AC+ cells in 3 randomly selected fields per well (n=3 wells per condition).
RNA was extracted by first lysing cells in QIAzol (QIAGEN) and subsequently using the RNeasy Mini kit (QIAGEN). Taqman Fast Universal PCR mastermix (Applied Biosystems) were used to reverse transcribe RNA into cDNA and analyzed during 40 cycles of real time PCR using Taqman probes (Applied Biosystems). Relative gene expression, normalized to 18S control, was calculated as fold change in 18S-normalized gene expression, over baseline, using the 2(-DDCT) method. Baseline, defined as fold change=1, was set to undifferentiated iPSCs. If undetected, a cycle number of 40 was assigned to allow fold change calculations.

[4] = IL-13 treated vs untreated, qRT-PCR

Chain of CFTR (F508del) in ALI cultures generated from CF iPSCs (P13569 with tags, fused parts or gaps DEL508-508): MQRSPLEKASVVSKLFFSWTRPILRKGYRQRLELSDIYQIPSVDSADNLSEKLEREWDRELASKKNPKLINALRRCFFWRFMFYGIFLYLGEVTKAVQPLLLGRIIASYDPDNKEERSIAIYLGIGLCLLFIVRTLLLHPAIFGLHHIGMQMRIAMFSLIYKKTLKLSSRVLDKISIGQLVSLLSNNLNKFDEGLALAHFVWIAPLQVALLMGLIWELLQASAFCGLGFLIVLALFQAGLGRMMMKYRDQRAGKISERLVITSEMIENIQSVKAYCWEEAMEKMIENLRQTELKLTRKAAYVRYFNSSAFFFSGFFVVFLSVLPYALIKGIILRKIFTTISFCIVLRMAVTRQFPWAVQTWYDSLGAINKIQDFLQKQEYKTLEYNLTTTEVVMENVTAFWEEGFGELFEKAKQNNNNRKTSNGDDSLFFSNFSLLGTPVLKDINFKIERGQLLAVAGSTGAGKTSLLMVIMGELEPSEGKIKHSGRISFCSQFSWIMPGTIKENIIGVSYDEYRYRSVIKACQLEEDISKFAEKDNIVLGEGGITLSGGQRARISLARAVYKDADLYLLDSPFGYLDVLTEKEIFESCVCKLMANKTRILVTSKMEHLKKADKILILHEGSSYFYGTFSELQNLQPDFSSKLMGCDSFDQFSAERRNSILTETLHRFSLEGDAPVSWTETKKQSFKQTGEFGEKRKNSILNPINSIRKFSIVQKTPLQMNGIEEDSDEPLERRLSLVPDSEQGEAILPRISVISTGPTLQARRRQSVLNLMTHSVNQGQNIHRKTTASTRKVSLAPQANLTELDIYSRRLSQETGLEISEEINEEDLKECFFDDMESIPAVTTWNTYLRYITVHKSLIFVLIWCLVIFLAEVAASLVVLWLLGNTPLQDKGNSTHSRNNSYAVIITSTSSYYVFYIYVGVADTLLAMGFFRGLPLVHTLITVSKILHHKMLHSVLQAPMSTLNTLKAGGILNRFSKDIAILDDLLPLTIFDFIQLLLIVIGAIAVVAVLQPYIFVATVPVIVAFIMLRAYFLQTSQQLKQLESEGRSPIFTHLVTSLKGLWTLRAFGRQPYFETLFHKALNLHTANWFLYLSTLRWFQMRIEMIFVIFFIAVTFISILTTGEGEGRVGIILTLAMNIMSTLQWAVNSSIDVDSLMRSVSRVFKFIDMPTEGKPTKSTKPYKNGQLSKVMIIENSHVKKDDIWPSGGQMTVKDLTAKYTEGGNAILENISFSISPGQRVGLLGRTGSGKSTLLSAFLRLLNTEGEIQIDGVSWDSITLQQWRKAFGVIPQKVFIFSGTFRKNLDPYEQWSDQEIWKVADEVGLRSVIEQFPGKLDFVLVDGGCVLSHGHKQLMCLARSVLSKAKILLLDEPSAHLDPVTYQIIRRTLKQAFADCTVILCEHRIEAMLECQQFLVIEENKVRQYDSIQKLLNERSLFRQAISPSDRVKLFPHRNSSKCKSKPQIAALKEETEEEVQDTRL
Chain of CFTR in ALI cultures generated from corrected CF iPSCs (Corr CF) (P13569 whole entry): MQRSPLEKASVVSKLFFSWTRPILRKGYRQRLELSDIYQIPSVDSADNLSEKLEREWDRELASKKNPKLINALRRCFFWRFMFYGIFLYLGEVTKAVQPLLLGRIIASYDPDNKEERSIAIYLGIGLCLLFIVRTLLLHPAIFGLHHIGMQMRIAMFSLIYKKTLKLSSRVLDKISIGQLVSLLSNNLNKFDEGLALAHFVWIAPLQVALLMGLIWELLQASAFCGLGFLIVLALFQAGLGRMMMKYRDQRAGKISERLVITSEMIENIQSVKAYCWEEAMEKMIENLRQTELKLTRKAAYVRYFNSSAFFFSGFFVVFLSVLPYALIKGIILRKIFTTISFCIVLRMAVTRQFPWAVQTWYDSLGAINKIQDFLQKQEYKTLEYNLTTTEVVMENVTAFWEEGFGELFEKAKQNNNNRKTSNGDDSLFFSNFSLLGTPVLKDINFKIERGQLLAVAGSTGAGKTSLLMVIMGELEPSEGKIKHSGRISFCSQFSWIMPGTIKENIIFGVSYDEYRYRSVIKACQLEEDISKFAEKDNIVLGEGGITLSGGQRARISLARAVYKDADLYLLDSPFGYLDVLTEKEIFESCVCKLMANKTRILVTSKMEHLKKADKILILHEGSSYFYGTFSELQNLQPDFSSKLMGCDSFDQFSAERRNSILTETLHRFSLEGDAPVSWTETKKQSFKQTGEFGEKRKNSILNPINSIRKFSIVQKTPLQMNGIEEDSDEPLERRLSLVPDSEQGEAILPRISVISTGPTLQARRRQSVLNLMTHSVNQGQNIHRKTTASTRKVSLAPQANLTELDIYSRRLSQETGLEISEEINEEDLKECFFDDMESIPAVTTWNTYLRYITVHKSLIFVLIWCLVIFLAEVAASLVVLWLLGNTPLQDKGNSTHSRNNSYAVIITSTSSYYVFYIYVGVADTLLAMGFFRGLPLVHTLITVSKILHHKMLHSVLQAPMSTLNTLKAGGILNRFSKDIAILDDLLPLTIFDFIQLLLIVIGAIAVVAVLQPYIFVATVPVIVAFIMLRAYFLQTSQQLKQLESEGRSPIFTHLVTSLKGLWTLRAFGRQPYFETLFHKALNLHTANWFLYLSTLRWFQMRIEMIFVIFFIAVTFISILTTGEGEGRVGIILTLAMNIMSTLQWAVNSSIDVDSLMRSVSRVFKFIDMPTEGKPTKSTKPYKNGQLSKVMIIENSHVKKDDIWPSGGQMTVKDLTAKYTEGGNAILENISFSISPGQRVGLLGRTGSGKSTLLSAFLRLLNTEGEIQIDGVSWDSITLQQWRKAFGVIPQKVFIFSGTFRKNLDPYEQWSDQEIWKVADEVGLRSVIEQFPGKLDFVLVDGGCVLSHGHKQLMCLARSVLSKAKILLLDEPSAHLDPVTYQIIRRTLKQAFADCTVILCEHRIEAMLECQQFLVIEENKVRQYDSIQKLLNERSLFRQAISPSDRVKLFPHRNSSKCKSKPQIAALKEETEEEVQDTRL

Substance | AIsc (change in short circuit current) [1] | AIsc (change in short circuit current) [2] | fold increase in numbers of MUC5AC+ cells ([3]; 10 ng/ml IL-13 added on day 10 of ALI differentiation, 10 days, vs untreated, p=0.002) | MUC5B expression [3, 4] | expression of goblet cell transcriptional regulator SPDEF [3, 4]
CFTRInh-172 | −0.8 pA/cm2 | −43.2±2.5 pA/cm2 |  |  | 
IL-13: inflammatory Th-2 cytokine in asthma that can induce mucus metaplasia |  |  | 1.75 fold | decrease | increased expression
